{"source": "patent US20040120949A1", "about": "“Compositions and methods for treating cancer using cytotoxic CD44 antibody immunoconjugates and radiotherapy” (Boehringer Ingelheim International GmbH, priority 2002, published 2004)", "key": {"[1]": {"tested_on": "cells in vitro", "conditions": "free drug; cited from earlier work"}, "[2]": {"tested_on": "antigen-positive FaDu cells", "assay": "In vitro binding to FaDu cells by FACS", "conditions": "on ice 1 hour, FITC-labeled anti-human IgG, read-out: apparent KD", "procedure": "The binding of BIWA 4 antibody and BIWI 1 conjugate to antigen-positive FaDu cells was determined. Cells (1−2×10^−5) were incubated in 96-well plates with varying concentrations of antibody or conjugate on ice for 1 hour. The test article was washed from the plate and FITC-labeled anti-human IgG was added and the incubation on ice was continued in the dark for 1 hour. After washing, the cells were fixed with 1% paraformaldehyde and analyzed on a fluorescence activated cell sorter (FACS)."}, "[3]": {"tested_on": "human FaDu SCC", "assay": "Tumor growth delay and local control of FaDu tumors in nude mice, drug alone or with fractionated irradiation", "type": "in vivo, NMRI (nu/nu) mice", "conditions": "for Growth delay to 5 times the starting volume (tν5) / Growth delay to 10 times the starting volume (tV10): median", "procedure": "(§1) BIWI 1, BIWA 4 and phosphate buffered saline (PBS) were applied intravenously (i.v.) in one of the tail veins. BIWI 1 was applied in doses of 50 μg and 100 μg DM1/kg body weight (b.w.)/d. Control animals were treated either with BIWA 4 (antibody control, 7 mg/kg b. w./d) or PBS.\n(§2) Animals: The experiments were performed using 7-14 week old male and female NMRI (nu/nu) mice from the specific pathogen-free animal breeding facility of the Experimental Center of the Medical Faculty of the University of Dresden. The animal facilities and the experiments were approved according to the German animal welfare regulations. The microbiological status of the animals was regularly checked by the veterinarians of the facility. The animal rooms provided day light plus a 12 h light-12 h dark electric cycle (light-on time 07.00 a.m.) and a constant temperature of 26° C. and relative humidity of 50-60%. The animals were fed a commercial laboratory animal diet and water ad libitum. To immunosuppress the nude mice further, they were whole-body irradiated 2 days before tumor transplantation with 4 Gy using 200 kV X-rays (0.5 mm Cu) at a dose rate of about 1 Gy/min.\nTumor: FaDu is an established human hypopharyngeal squamous cell carcinoma line, kept in high passage by the American Type Culture Collection (Rockville, Md.). In nude mice FaDu grows as an undifferentiated carcinoma with a volume doubling time (VDT) between 100 mm^3 and 400 mm^3 of about 4 days. […] For the experiments small tumor pieces were transplanted subcutaneously (s.c.) into the right hindleg of anaesthetised mice.\n(§3) Combination of BIWI 1 with fractionated irradiation: Local irradiations were given under ambient conditions without anaesthesia to air breathing animals (200 kV X-rays, 0.5 mm Cu, at a dose rate of 1.1 Gy/min). Up to five animals were irradiated simultaneously in specially designed jigs. For the treatments, the mice were immobilised in a plastic tube fixed on a lucite plate. The tumor-bearing leg was held positioned in the irradiation field by a foot-holder distal to the tumor. Tumor volume at the start of irradiation were around 100 mm^3. Tumors were irradiated with 5 fractions of 4 Gy in 5 days. The animals were randomized over the experimental matrix in groups of 5, aiming for about 15 animals (range 14 to 15 animals) for each treatment group. Irradiation protocols were started every second day. Animals received either BIWI 1 (50 μg DM1/kg/d), BIWI 1 (100 μg DM1/kg/d), BIWA 4 (7 mg/kg/d) or PBS two hours after each irradiation for 5 consecutive days. The report includes data obtained from a total of 59 irradiated tumors. In addition, 57 unirradiated FaDu tumors were treated with BIWI 1 (50 μg/kg/d), BIWI 1 (100 μg/kg/d), BIWA 4 (7 mg/kg/d) or PBS for 5 consecutive days.\nDeterminations of tumor volume and tumor growth delay: Animals were observed until the mean diameter of the untreated or recurrent tumors exceeded 12-15 mm, until death or until day 120 after end of treatment. Animals that appeared to suffer were killed before reaching these endpoints. Tumor diameters were measured every second day. Tumor volumes were determined by the formula of a rotational ellipsoid π/6×a×b^2, where a is the longest and b is the perpendicular shorter tumor axis. Conversion of tumor volumes to tumor mass (mg) was performed by a calibration curve based on excision weights. Tumor growth delay was determined from individual growth curves as the time that a regrowing tumor needed to reach 5 and 10 times the start volume (tv5, tv10).\nStatistics: Medians and 95% confidence intervals (CI) of the tumor growth delay were calculated according to Sachs (Angewandte Statistik, 7. Aufl., Springer 1992). Experimental groups were compared using the Mann-Whitney-U test and a commercial software package (SPSS for Windows 9.0, SPSS Inc., 1999)."}, "[4]": {"assay": "Tolerability in tumor-bearing nude mice", "type": "in vivo", "procedure": "as §1, §2, §3"}, "[5]": {"tested_on": "CD44v6", "sequence (P16070 386-428 limits assumed)": "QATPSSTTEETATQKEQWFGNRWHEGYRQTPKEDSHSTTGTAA", "assay": "Antigen binding affinity of humanised VFF-18 versions", "set-up": "species or system human"}, "[6]": {"assay": "Biodistribution and tumor uptake in vivo"}, "[7]": {"target": "CD44v6 on antigen-positive FaDu cells (human) (UniProt P16070)", "assay": "flow cytometry (FACS) on antigen-positive FaDu cells, FITC-labeled anti-human IgG detection; apparent KD"}, "[8]": {"conditions": "BIWA 4 7 mg/kg/d + fractionated irradiation"}, "[9]": {"conditions": "BIWA 4 7 mg/kg/d i.v. x5 days, no irradiation"}, "[10]": {"conditions": "BIWA 4 7 mg/kg/d x5 days + fRT (5x4 Gy)"}, "[11]": {"conditions": "50 μg DM1/kg b.w./d alone, no irradiation"}, "[12]": {"conditions": "50 μg DM1/kg/d + fractionated irradiation"}, "[13]": {"conditions": "50 ug DM1/kg/d i.v. x5 days, no irradiation"}, "[14]": {"conditions": "50 ug DM1/kg/d x5 days + fRT (5x4 Gy)"}, "[15]": {"conditions": "100 ug DM1/kg/d i.v. x5 days, no irradiation"}, "[16]": {"conditions": "100 ug DM1/kg/d x5 days + fRT (5x4 Gy)"}}, "note": "“And” between values parts separate entries of the source, which are not always exact repeats. Equal entries are not always repeated.", "data": [{"molecule": "COc1cc2cc(c1Cl)N(C)C(=O)C[C@H](OC(=O)[C@H](C)N(C)C(=O)CCS)[C@]1(C)O[C@H]1[C@H](C)[C@@H]1C[C@@](O)(NC(=O)O1)[C@H](OC)/C=C/C=C(\\C)C2", "note": "[DM1, N^2′-deacetyl-N^2′-(3-mercapto-1-oxopropyl)-Maytansine]", "values": [{"measurement": "concentration toxic to cells in vitro", "setting": "[1]", "value": "approximately 10^−10 M"}]}, {"molecule": "BIWA 4: Humanised version of antibody VFF-18, CD44v6 specific; light chains SEQ ID NO:4, heavy chains SEQ ID NO:6", "values": [{"measurement": "Kd", "setting": "[2]", "value": 1, "unit": "nM"}, {"measurement": "Local tumor control rate at day 120", "setting": "[3]; [8]", "value": "0/14"}, {"measurement": "estimated dose modifying factor", "setting": "[3]; [8]", "value": 1.2}, {"measurement": "Growth delay compared with irradiated controls", "setting": "[3]; BIWA 4 7 mg/kg/d + irradiation 20 Gy in 5 fractions", "value": "slightly but significant longer growth delay"}, {"measurement": "Tumor growth compared with control tumors treated with PBS", "setting": "[3]; BIWA 4 7 mg/kg/d alone, no irradiation", "value": "did not alter tumor growth"}, {"measurement": "Growth delay to 5 times the starting volume (tν5)", "setting": "[3]; [9]", "value": "10,8 d"}, {"measurement": "Growth delay to 10 times the starting volume (tV10)", "setting": "[3]; [9]", "value": 16.0, "unit": "days"}, {"measurement": "Growth delay to 5 times the starting volume (tν5)", "setting": "[3]; [10]", "value": 30.5, "unit": "days"}, {"measurement": "Growth delay to 10 times the starting volume (tV10)", "setting": "[3]; [10]", "value": 40.0, "unit": "days"}, {"measurement": "Toxicity observed after application", "setting": "[4]; i.v. x5 days", "value": "No toxicity was observed"}, {"measurement": "Body weight during the treatment", "setting": "[4]; irradiated and unirradiated animals, versus PBS group", "value": "minor and temporary changes without significant differences"}, {"measurement": "Antigen binding affinity (comparative)", "setting": "[5]", "value": "significantly lower antigen binding affinity as its parent antibody VFF-18"}, {"measurement": "Biodistribution and tumor uptake in vivo", "setting": "[6]", "value": "very favorable biodistribution and tumor uptake in vivo"}]}, {"molecule": "BIWI 1", "values": [{"measurement": "Kd", "setting": "[2]", "value": 1.8, "unit": "nM"}, {"measurement": "tv5 and tv10 compared with irradiated tumors which received PBS or BIWA 4", "setting": "[3]; 50 μg DM1/kg b.w./d + irradiation 20 Gy in 5 fractions", "value": "clear-cut longer"}, {"measurement": "tv5 compared with controls", "setting": "[3]; [11]", "value": "did not prolong"}, {"measurement": "tv10 compared with controls", "setting": "[3]; [11]", "value": "slightly but significant longer"}, {"measurement": "Effect of combined treatment with fractionated irradiation (radiosensitizing efficacy)", "setting": "[3]; [12]", "value": "supra-additive"}, {"measurement": "Local tumor control rate at day 120", "setting": "[3]; [12]", "value": "7 out of 15"}, {"measurement": "estimated dose modifying factor", "setting": "[3]; [12]", "value": 4.1}, {"measurement": "Local tumor control rate at day 120", "setting": "[3]; 50 μg DM1/kg/d + fractionated irradiation, listed as BIWI1", "value": "7/15"}, {"measurement": "Growth delay to 5 times the starting volume (tν5)", "setting": "[3]; [13]", "value": 13.5, "unit": "days"}, {"measurement": "Growth delay to 10 times the starting volume (tV10)", "setting": "[3]; [13]", "value": 26.0, "unit": "days"}, {"measurement": "Growth delay to 5 times the starting volume (tν5)", "setting": "[3]; [14]", "value": 107.5, "unit": "days"}, {"measurement": "Growth delay to 10 times the starting volume (tV10)", "setting": "[3]; [14]", "value": ">120", "unit": "days"}, {"measurement": "tv5 and tv10 compared with irradiated tumors which received PBS or BIWA 4", "setting": "[3]; 100 μg DM1/kg b.w./d + irradiation 20 Gy in 5 fractions", "value": "significant longer"}, {"measurement": "Tv5 and tv10 compared to controls", "setting": "[3]; 100 μg DM1/kg b.w./d alone, no irradiation", "value": "substantially and significantly prolonged"}, {"measurement": "estimated dose modifying factor", "setting": "[3]; 100 μg DM1/kg/d + fractionated irradiation", "value": "> 4.5"}, {"measurement": "Local tumor control rate at day 120", "setting": "[3]; 100 μg DM1/kg/d + fractionated irradiation, 4 further controlled animals censored earlier", "value": "6 out of 15 and 6/15"}, {"measurement": "Growth delay to 5 times the starting volume (tν5)", "setting": "[3]; [15]", "value": 27.5, "unit": "days"}, {"measurement": "Growth delay to 10 times the starting volume (tV10)", "setting": "[3]; [15]", "value": 33.5, "unit": "days"}, {"measurement": "Growth delay to 5 times the starting volume (tν5)", "setting": "[3]; [16]", "value": ">120", "unit": "days"}, {"measurement": "Growth delay to 10 times the starting volume (tV10)", "setting": "[3]; [16]", "value": ">120", "unit": "days"}, {"measurement": "estimated kill of clonogenic FaDu cells", "setting": "[3]; 5x 100 μg DM1/kg/d alone", "value": "at least two logs"}, {"measurement": "Toxicity observed after application", "setting": "[4]; i.v. x5 days", "value": "No toxicity was observed"}, {"measurement": "Tolerability", "setting": "[4]; i.v. x5 days, irradiated and unirradiated animals", "value": "well tolerated"}, {"measurement": "Body weight during the treatment", "setting": "[4]; mouse, in vivo", "value": "minor and temporary changes without significant differences"}]}, {"molecule": "BIWA 4 (antibody, human IgG1, kappa, V domains shown) VH: EVQLVESGGGLVKPGGSLRLSCAASGFTFSSYDMSWVRQAPGKGLEWVSTISSGGSYTYYLDSIKGRFTISRDNAKNSLYLQMNSLRAEDTAVYYCARQGLDYWGRGTLVTVSS VL: EIVLTQSPATLSLSPGERATLSCSASSSINYIYWYQQKPGQAPRLLIYLTSNLASGVPARFSGSGSGTDFTLTISSLEPEDFAVYYCLQWSSNPLTFGGGTKVEIKR", "values": [{"measurement": "Kd", "setting": "[7]", "value": 1, "unit": "nM"}]}, {"molecule": "BIWI 1 (antibody, V domains shown, maytansinoid DM1 linked by a disulfide bond through the SPP-derived thiopentanoate linker to amino functions of the antibody; DM1/MAb ratio 3.1 (average for the whole antibody; sites not stated)) VH: EVQLVESGGGLVKPGGSLRLSCAASGFTFSSYDMSWVRQAPGKGLEWVSTISSGGSYTYYLDSIKGRFTISRDNAKNSLYLQMNSLRAEDTAVYYCARQGLDYWGRGTLVTVSS VL: EIVLTQSPATLSLSPGERATLSCSASSSINYIYWYQQKPGQAPRLLIYLTSNLASGVPARFSGSGSGTDFTLTISSLEPEDFAVYYCLQWSSNPLTFGGGTKVEIKR", "values": [{"measurement": "Kd", "setting": "[7]", "value": 1.8, "unit": "nM"}]}]}
